Results taken from US20110044938A1 (NYCOMED GMBH, priority 2006, published 2011).

What was measured:
[1] = test system: RKO (RKOp27) human colon adenocarcinoma cells; assay: Alamar Blue cell viability assay, anti-proliferative/cytotoxic activity on proliferating RKO subclones; type: cell-based; settings: RKOp27, 72 h, RKO p27 uninduced (proliferating) cells, value = class bound given in Table A, read-out: −logIC50 RKO p27 uninduced (proliferating) (converted)
How it was run: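 RKOp27 subclones (5000 cells/well) were exposed 24 h after seeding to semi-log compound dilutions in DMEM with 10% FCS, in quadruplicate, for 72 h at 37 °C. Viability was read by Alamar Blue fluorescence (544/590 nm) relative to untreated cells (1% DMSO medium). IC50 came from concentration-effect curves and is reported as −log IC50 [mol/l].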

[2] = test system: subclones of RKO colon adenocarcinoma cells (RKOp27 or RKOp21) arrested by Ponasterone A; assay: Alamar Blue cell viability assay, cell cycle specific mode of action: cells arrested by ectopic p27Kip1 induced by Ponasterone A versus proliferating cells; type: cell-based; settings: Homo sapiens, RKO p27 induced (arrested) cells, 10 μM Ponasterone A, 72 hours, value = class bound given in Table A, read-out: −logIC50 RKO p27 induced (arrested) (converted)
How it was run: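 RKOp27 or RKOp21 cells, 15000/well in DMEM/10% FCS, either arrested by p27Kip1 induced with 10 μM Ponasterone A or proliferating without inducer; compound added after 24 h, 72 h at 37° C. Alamar Blue fluorescence (544/590 nm), viability as % of untreated cells; −log IC50 reported.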

| IC50 [2] [µM] | Structure (SMILES) | IC50 [1] [µM] |
| --- | --- | --- |
| ≥ 100 | Cc1csc(CNC(=O)OCC2CCc3c(sc(NC(=O)/C=C/c4cccnc4)c3C#N)C2)n1 (stereo not shown) [Example 67, (4-Methyl-thiazol-2-ylmethyl)-carbamic acid 3-cyano-2-((E)-3-pyridin-3-yl-allanoylamino)-4,5,6,7-tetrahydro-benzo[b]thiophen-6-ylmethyl ester] | ≤ 0.501 |
| ≥ 100 | N#Cc1c(NC(=O)/C=C/c2cccnc2)sc2c1CCC(COC(=O)N1CCCC1)C2 (stereo not shown) [Example 68, Pyrrolidine-1-carboxylic acid 3-cyano-2-((E)-3-pyridin-3-yl-allanoylamino)-4,5,6,7-tetrahydro-benzo[b]thiophen-6-ylmethyl ester] | ≤ 0.501 |
| ≥ 100 | N#Cc1c(NC(=O)/C=C/c2cccnc2)sc2c1CC[C@H](COC(=O)N1CCCC1)C2 [Example 68a, Pyrrolidme-1-carboxyhc acid (S)-3-cyano-2-((E)-3-pyridin-3-yl-allanoylamino)-4,5,6,7-tetrahydro-benzo[b]thiophen-6-ylmethyl ester] | ≤ 0.501 |
| ≥ 100 | N#Cc1c(NC(=O)/C=C/c2cccnc2)sc2c1CC[C@@H](COC(=O)N1CCCC1)C2 [Example 68b, Pyrrolidine-1-carboxylic acid (R)-3-cyano-2-((E)-3-pyridin-3-yl-allanoylamino)-4,5,6,7-tetrahydro-benzo[b]thiophen-6-ylmethyl ester] | ≤ 0.501 |
| ≥ 100 | CCn1nccc1CNC(=O)OC1CCc2c(sc(NC(=O)/C=C/c3cccnc3)c2C#N)C1 (stereo not shown) [Example 69, (2-Ethyl-2H-pyrazol-3-ylmethyl)-carbamic acid 3-cyano-2-((E)-3-pyridin-3-yl-allanoylamino)-4,5,6,7-tetrahydro-benzo[b]thiophen-6-yl ester] | ≤ 0.501 |
| ≥ 100 | N#Cc1c(NC(=O)/C=C/c2cccnc2)sc2c1CCC(OC(=O)NCC1CCCO1)C2 (stereo not shown) [Example 70, (Tetrahydro-furan-2-ylmethyl)-carbamic acid 3-cyano-2-((E)-3-pyridin-3-yl-allanoylamino)-4,5,6,7-tetrahydro-benzo[b]thiophen-6-yl ester] | 0.501 to 2 |
| ≥ 100 | Cc1oncc1CNC(=O)OCC1CCc2c(sc(NC(=O)/C=C/c3cccnc3)c2C#N)C1 (stereo not shown) [Example 71, (5-Methyl-isoxazol-4-ylmethyl)-carbamic acid 3-cyano-2-((E)-3-pyridin-3-yl-allanoylamino)-4,5,6,7-tetrahydro-benzo[b]thiophen-6-ylmethyl ester] | 0.501 to 2 |
| ≥ 100 | Cc1nnc(CNC(=O)OCC2CCc3c(sc(NC(=O)/C=C/c4cccnc4)c3C#N)C2)o1 (stereo not shown) [Example 72, (5-Methyl-[1,3,4]oxadiazol-2-ylmethyl)-carbamic acid 3-cyano-2-((E)-3-pyridin-3-yl-allanoylamino)-4,5,6,7-tetrahydro-benzo[b]thiophen-6-ylmethyl ester] | ≤ 0.501 |
| ≥ 100 | N#Cc1c(NC(=O)/C=C/c2cccnc2)sc2c1CCC(COC(=O)N1CC(O)C1)C2 (stereo not shown) [Example 73, 3-Hydroxy-azetidine-1-carboxylic acid 3-cyano-2-((E)-3-pyridin-3-yl-allanoylamino)-4,5,6,7-tetrahydro-benzo[b]thiophen-6-ylmethyl ester] | ≤ 0.501 |
| ≥ 100 | N#Cc1c(NC(=O)/C=C/c2cccnc2)sc2c1CC[C@H](COC(=O)N1CC(O)C1)C2 [Example 73a, 3-Hydroxy-azetidine-1 - carboxylic acid (S)-3-cyano-2-((E)-3-pyridin-3-yl-allanoylamino)-4,5,6,7-tetrahydro-benzo[b]thiophen-6-ylmethyl ester] | ≤ 0.501 |
| ≥ 100 | N#Cc1c(NC(=O)/C=C/c2cccnc2)sc2c1CC[C@@H](COC(=O)N1CC(O)C1)C2 [Example 73b, 3-Hydroxy-azetidine-l - carboxylic acid (R)-3-cyano-2-((E)-3-pyridin-3-yl-allanoylamino)-4,5,6,7-tetrahydro-benzo[b]thiophen-6-ylmethyl ester] | 0.501 to 2 |
